We go through 27 compounds from patent US8791123B2, “Substituted pyrazolo[1,5-a]pyrimidine compounds as Trk kinase inhibitors” (Array Biopharma, Inc., priority 2009, dated 2014).

The target in test [1] is TrkA (histidine-tagged recombinant human TrkA, cytoplasmic domain) (Homo sapiens (Human), UniProt P04629). As to the kind of experiment: TrkA ELISA Assay. It counts as biochemical. Conditions: Table 1; ELISA, 500 μM ATP; read-out: TrkA Enzyme IC50. Put shortly: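 ELISA read-out: a peroxidase-linked anti-phosphotyrosine antibody (PY20, 0.2 μg/mL) with TMB substrate, absorbance at 450 nm after acid stop. The plate-bound substrate was poly(Glu,Ala,Tyr; 6:3:1) at 0.025 mg/mL, phosphorylated by the recombinant His-tagged human TrkA cytoplasmic domain in the presence of inhibitors.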

The next test deals with Human Jak2 kinase domain (Homo sapiens (Human), UniProt O60674). As to the kind of experiment: Jak2 Inhibition Assay (Omnia kinase assay). It counts as biochemical. The note with it: read-out: Jak2 Enzyme IC50.
[2] abbreviates: Table 1, 500 μM ATP, >1000 nM when >50% inhibition not observed at 1000 nM.

Where a name gives a salt, the structure may show the parent alone. Read-outs that look alike come from different tables or passages of the source.

Sequence of Human Jak2 kinase domain (O60674 808-1132): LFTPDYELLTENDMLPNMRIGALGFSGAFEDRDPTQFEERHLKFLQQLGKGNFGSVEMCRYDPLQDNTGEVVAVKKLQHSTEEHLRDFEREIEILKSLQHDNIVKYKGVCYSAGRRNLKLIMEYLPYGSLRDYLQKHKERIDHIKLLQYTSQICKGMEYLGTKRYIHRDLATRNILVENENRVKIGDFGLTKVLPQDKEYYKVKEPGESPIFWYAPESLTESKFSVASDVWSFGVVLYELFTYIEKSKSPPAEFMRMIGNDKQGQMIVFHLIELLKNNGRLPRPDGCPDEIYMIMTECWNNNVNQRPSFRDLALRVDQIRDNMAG
Sequence of TrkA (histidine-tagged recombinant human TrkA, cytoplasmic domain) (P04629 440-796): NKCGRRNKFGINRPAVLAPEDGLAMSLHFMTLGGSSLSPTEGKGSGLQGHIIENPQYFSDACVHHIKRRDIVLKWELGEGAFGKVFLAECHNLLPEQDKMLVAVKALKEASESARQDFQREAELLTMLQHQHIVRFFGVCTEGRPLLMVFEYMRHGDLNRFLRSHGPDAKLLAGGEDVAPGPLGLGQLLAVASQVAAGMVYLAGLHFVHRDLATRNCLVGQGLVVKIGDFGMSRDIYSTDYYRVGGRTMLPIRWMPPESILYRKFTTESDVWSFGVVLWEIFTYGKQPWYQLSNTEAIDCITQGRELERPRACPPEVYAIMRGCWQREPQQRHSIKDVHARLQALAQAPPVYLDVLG

As to `CNC(=O)c1cnn2ccc(N3C[C@H](O)C[C@@H]3c3cccc(F)c3)nc12` [Example 43, 5-((2R,4R)-2-(3-fluorophenyl)-4-hydroxypyrrolidin-1-yl)-N-methylpyrazolo[1,5-a]pyrimidine-3-carboxamide], the values for the IC50 (in test [1]; on Human Jak2 kinase domain (setting [2])) were 0.139 µM and more than 1 µM, respectively.
For the compound `CC(C)(C)NC(=O)c1cnn2ccc(N3C[C@H](O)C[C@@H]3c3cccc(F)c3)nc12` [Example 42, N-tert-butyl-5-((2R,4R)-2-(3-fluorophenyl)-4-hydroxypyrrolidin-1-yl)pyrazolo[1,5-a]pyrimidine-3-carboxamide], the values for the IC50 (in test [1]; on Human Jak2 kinase domain (setting [2])) were 0.0483 µM and more than 1 µM, respectively.
For the compound `COc1ccc(F)cc1[C@H]1CCCN1c1ccn2ncc(C(=O)NCCN3CCOCC3)c2n1` [Example 54, (R)-5-(2-(5-fluoro-2-methoxyphenyl)pyrrolidin-1-yl)-N-(2-morpholinoethyl)pyrazolo[1,5-a]pyrimidine-3-carboxamide], the results for the IC50 (in test [1]; on Human Jak2 kinase domain) were 0.00225 µM and more than 1 µM, respectively.
For the compound `CC1(C)OCC(COc2cc(F)cc([C@H]3CCCN3c3ccn4ncc(C(=O)NC5CC5)c4n3)c2)O1` (stereo partly drawn) [Example 206, N-cyclopropyl-5-((2R)-2-(3-((2,2-dimethyl-1,3-dioxolan-4-yl)methoxy)-5-fluorophenyl)pyrrolidin-1-yl)pyrazolo[1,5-a]pyrimidine-3-carboxamide], the results for the IC50 (in test [1]; at Human Jak2 kinase domain (setting [2])) were 0.0039 µM and more than 1 µM, respectively.
The corresponding values for `C[C@H](O)[C@@H](CO)NC(=O)c1cnn2ccc(N3CCC[C@@H]3c3cc(F)ccc3F)nc12` [Example 176, 5-((R)-2-(2,5-difluorophenyl)pyrrolidin-1-yl)-N-((2R,3S)-1,3-dihydroxybutan-2-yl)pyrazolo[1,5-a]pyrimidine-3-carboxamide] are 0.0272 µM and more than 1 µM.
On to `CONC(=O)c1cnn2ccc(N3CCC[C@@H]3c3cc(F)cnc3OC)nc12` [Example 83, (R)-5-(2-(5-fluoro-2-methoxypyridin-3-yl)pyrrolidin-1-yl)-N-methoxypyrazolo[1,5-a]pyrimidine-3-carboxamide], for which the IC50 in test [1] is 0.00177 µM; at Human Jak2 kinase domain it was more than 1 µM.
As to `Cc1ccc(CNC(=O)c2cnn3ccc(N4CCC[C@@H]4c4cc(F)ccc4F)nc23)o1` [Example 5, (R)-5-(2-(2,5-difluorophenyl)pyrrolidin-1-yl)-N-((5-methylfuran-2-yl)methyl)pyrazolo[1,5-a]pyrimidine-3-carboxamide], the IC50 in test [1] is 0.00095 µM; at Human Jak2 kinase domain (setting [2]), more than 1 µM.
The corresponding values for `Cn1cc(F)cc([C@H]2CCCN2c2ccn3ncc(C(=O)NC4(C)CC4)c3n2)c1=O` [Example 237, (R)-5-(2-(5-fluoro-1-methyl-2-oxo-1,2-dihydropyridin-3-yl)pyrrolidin-1-yl)-N-(1-methylcyclopropyl)pyrazolo[1,5-a]pyrimidine-3-carboxamide] are 0.0021 µM and 0.616 µM.
The corresponding values for `COc1ncc(F)cc1[C@H]1CCCN1c1ccn2ncc(C(=O)NOCCOC(C)(C)C)c2n1` [Example 152, (R)-N-(2-tert-butoxyethoxy)-5-(2-(5-fluoro-2-methoxypyridin-3-yl)pyrrolidin-1-yl)pyrazolo[1,5-a]pyrimidine-3-carboxamide] are 0.0181 µM and more than 1 µM.
The corresponding values for `O=C(N[C@H]1CC[C@H](O)C1)c1cnn2ccc(N3CCC[C@@H]3c3cncc(F)c3)nc12` [Example 105, 5-((R)-2-(5-fluoropyridin-3-yl)pyrrolidin-1-yl)-N-((1S,3S)-3-hydroxycyclopentyl)pyrazolo[1,5-a]pyrimidine-3-carboxamide] are 0.0254 µM and more than 1 µM.
Consider `CC1(C)CC[C@H](c2cc(F)ccc2F)N1c1ccn2ncc(C(=O)NC3CC3)c2n1` [Example 68, (R)—N-cyclopropyl-5-(5-(2,5-difluorophenyl)-2,2-dimethylpyrrolidin-1-yl)pyrazolo[1,5-a]pyrimidine-3-carboxamide], for which the IC50 in test [1] was 0.0066 µM; at Human Jak2 kinase domain (setting [2]), more than 1 µM.
`COc1ncc(F)cc1[C@H]1CCCN1c1ccn2ncc(C(=O)NCCCCO)c2n1` [Example 151, (R)-5-(2-(5-fluoro-2-methoxypyridin-3-yl)pyrrolidin-1-yl)-N-(4-hydroxybutyl)pyrazolo[1,5-a]pyrimidine-3-carboxamide]: the IC50 is 0.0014 µM in test [1] and more than 1 µM at Human Jak2 kinase domain (setting [2]).
In the same order, the values of `O=C(NC1CCOCC1)c1cnn2ccc(N3CCC[C@@H]3c3cc(F)ccc3F)nc12` [Example 20, (R)-5-(2-(2,5-difluorophenyl)pyrrolidin-1-yl)-N-(tetrahydro-2H-pyran-4-yl)pyrazolo[1,5-a]pyrimidine-3-carboxamide] are 0.0006 µM and 0.257 µM.
In the same order, the values of `O=C(NOC[C@@H](O)CO)c1cnn2ccc(N3CCC[C@@H]3c3cc(F)ccc3F)nc12` [Example 88, 5-((R)-2-(2,5-difluorophenyl)pyrrolidin-1-yl)-N—((S)-2,3-dihydroxypropoxy)pyrazolo[1,5-a]pyrimidine-3-carboxamide] are 0.00613 µM and more than 1 µM.
In the same order, the values of `CC(C)(N)CNC(=O)c1cnn2ccc(N3CCC[C@@H]3c3cc(F)ccc3F)nc12` [Example 58, (R)—N-(2-amino-2-methylpropyl)-5-(2-(2,5-difluorophenyl)pyrrolidin-1-yl)pyrazolo[1,5-a]pyrimidine-3-carboxamide] are 0.0094 µM and more than 1 µM.
Consider `O=C(N[C@@H]1CCNC[C@@H]1F)c1cnn2ccc(N3CCC[C@@H]3c3cc(F)ccc3F)nc12` [Example 61, 5-((R)-2-(2,5-difluorophenyl)pyrrolidin-1-yl)-N-((3S,4R)-3-fluoropiperidin-4-yl)pyrazolo[1,5-a]pyrimidine-3-carboxamide hydrochloride], for which the figures for the IC50 (in test [1]; on Human Jak2 kinase domain) were 0.00195 µM and 0.699 µM, respectively.
In the same order, the values of `CC(C)(C#N)NC(=O)c1cnn2ccc(N3CCC[C@@H]3c3cc(F)ccc3F)nc12` [Example 38, (R)—N-(2-cyanopropan-2-yl)-5-(2-(2,5-difluorophenyl)pyrrolidin-1-yl)pyrazolo[1,5-a]pyrimidine-3-carboxamide] are 0.0013 µM and more than 1 µM.
Take `NC(=O)c1cnn2ccc(N3CCC[C@@H]3c3cc(F)cc(OCCN4CCOCC4)c3)nc12` [Example 76, (R)-5-(2-(3-fluoro-5-(2-morpholinoethoxy)phenyl)pyrrolidin-1-yl)pyrazolo[1,5-a]pyrimidine-3-carboxamide]: the results for the IC50 (in test [1]; at Human Jak2 kinase domain (setting [2])) were 0.0901 µM and more than 1 µM, respectively.
The corresponding values for `CC(C)(CF)NC(=O)c1cnn2ccc(N3CCC[C@@H]3c3cncc(F)c3)nc12` [Example 71, (R)—N-(1-fluoro-2-methylpropan-2-yl)-5-(2-(5-fluoropyridin-3-yl)pyrrolidin-1-yl)pyrazolo[1,5-a]pyrimidine-3-carboxamide] are 0.00865 µM and more than 1 µM.
On to `CCc1ncc(F)cc1[C@H]1CCCN1c1ccn2ncc(C(=O)N[C@H]3CC[C@H](O)C3)c2n1` [Example 200, 5-((R)-2-(2-ethyl-5-fluoropyridin-3-yl)pyrrolidin-1-yl)-N-((1S,3S)-3-hydroxycyclopentyl)pyrazolo[1,5-a]pyrimidine-3-carboxamide], for which the IC50 is 0.0127 µM in test [1] and more than 1 µM on Human Jak2 kinase domain (setting [2]).
`CC(C)(CN1CCOCC1)NC(=O)c1cnn2ccc(N3CCC[C@@H]3c3cc(F)ccc3F)nc12` [Example 9, (R)-5-(2-(2,5-difluorophenyl)pyrrolidin-1-yl)-N-(2-methyl-1-morpholinopropan-2-yl)pyrazolo[1,5-a]pyrimidine-3-carboxamide]: the values for the IC50 (in test [1]; at Human Jak2 kinase domain (setting [2])) were 0.00345 µM and more than 1 µM, respectively.
As for `O=C(O)CC1CCN(C(=O)c2cnn3ccc(N4CCC[C@@H]4c4cc(F)ccc4F)nc23)CC1` [Example 12, (R)-2-(1-(5-(2-(2,5-difluorophenyl)pyrrolidin-1-yl)pyrazolo[1,5-a]pyrimidine-3-carbonyl)piperidin-4-yl)acetic acid], the results for the half-maximal inhibitory concentration (IC50) (in test [1]; on Human Jak2 kinase domain) were 0.238 µM and more than 1 µM, respectively.
Regarding `Cc1ncc(F)cc1[C@H]1CCCN1c1ccn2ncc(C(=O)NCCO)c2n1` [Example 188, (R)-5-(2-(5-fluoro-2-methylpyridin-3-yl)pyrrolidin-1-yl)-N-(2-hydroxyethyl)pyrazolo[1,5-a]pyrimidine-3-carboxamide], the IC50 in test [1] was 0.083 µM; at Human Jak2 kinase domain (setting [2]), more than 1 µM.
In the same order, the values of `COc1ncc(F)cc1[C@H]1CCCN1c1ccn2ncc(C(=O)NC3CCN(S(C)(=O)=O)CC3)c2n1` [Example 162, (R)-5-(2-(5-fluoro-2-methoxypyridin-3-yl)pyrrolidin-1-yl)-N-(1-(methylsulfonyl)piperidin-4-yl)pyrazolo[1,5-a]pyrimidine-3-carboxamide] are 0.0022 µM and 0.444 µM.
The corresponding values for `CONC(=O)c1cnn2ccc(N3CCC[C@@H]3c3cc(F)ccc3F)nc12` [Example 65, (R)-5-(2-(2,5-difluorophenyl)pyrrolidin-1-yl)-N-methoxypyrazolo[1,5-a]pyrimidine-3-carboxamide] are 0.0006 µM and more than 1 µM.
In the case of `Cn1cc(F)cc([C@H]2CCCN2c2ccn3ncc(C(=O)Nc4cccnc4)c3n2)c1=O` [Example 231, (R)-5-(2-(5-fluoro-1-methyl-2-oxo-1,2-dihydropyridin-3-yl)pyrrolidin-1-yl)-N-(pyridin-3-yl)pyrazolo[1,5-a]pyrimidine-3-carboxamide], the half-maximal inhibitory concentration (IC50) was 0.0087 µM in test [1] and more than 1 µM on Human Jak2 kinase domain (setting [2]).
For the compound `O=C(NC1CCC[C@@H]1O)c1cnn2ccc(N3CCCC3c3cncc(F)c3)nc12` (stereo partly drawn) [Example 120, 5-((R)-2-(5-fluoropyridin-3-yl)pyrrolidin-1-yl)-N-((trans)-2-hydroxycyclopentyl)pyrazolo[1,5-a]pyrimidine-3-carboxamide], the IC50 in test [1] was 0.0228 µM; on Human Jak2 kinase domain (setting [2]), more than 1 µM.
